Test results from patent US8283373B2, “Inhibitors of cytosolic phospholipase A2” (Pfizer Inc., priority 2005, dated 2012).

Experiments:
TXB2 = assay: Rat Whole Blood Assay (A23187-stimulated TXB2); type: cell-based; conditions: Rattus norvegicus; A23187 5 μM
Procedure: Fresh blood was collected in heparinized tubes by cardiac puncture of male Sprague-Dawley rats. Aliquots of blood (0.6 mL) were incubated with either 6 μL solvent (DMSO), or 6 μL of test compounds at various concentrations for 15 minutes at 37° C. This was followed by incubation of the blood with 6 μL of calcium ionophore, A23187 (Sigma C-7522) diluted in DMSO for 10 min at 37° C. The final concentration of A23187 was 5 μM. DMSO (6 μL) was added in the unstimulated controls. The reactions were stopped by mixing 60 μL cold EDTA to give a final concentration of 20 mM. The blood was centrifuged at 6,500 rpm for 10 min on a microcentrifuge to obtain plasma. A 70 μL aliquot of plasma was mixed with 400 μL cold methanol for protein precipitation. After incubation at −80° C. for 30 min, the supernatant was obtained by centrifuging at 6,500 rpm for 10 min, and was assayed for TXB2 according to the manufacturer's procedure (Assay Designs, Inc.'s ELISA kit #900-002).

[1] = test system: primary cerebellar granule neurons; assay: Oxygen-glucose deprivation (OGD) in cultured cerebellar granule neurons; type: cell-based, rat; conditions: for percent cell death (lactate dehydrogenase release), Avg.: OGD 2 hours, control 14, OGD 51
Procedure: Primary cerebellar granule neurons were isolated from P5-8 rat pups. Briefly, cerebelli were collected and pooled in ice-cold phosphate buffer saline (PBS) without Ca^2+ and Mg^2+. The tissue was finely chopped and transferred to an enzymatic dissociation media containing 20 IU/ml papain in Earle's balanced salt solution (Worthington Biochemical, Freehold, N.J.) and incubated for 30 minutes at 37° C. After enzymatic dissociation, the papain solution was aspirated and the tissue mechanically triturated with a fire-polished Pasteur pipette in complete media [Neurobasal Medium with B-27 supplement (Gibco, Grand Island, N.Y.), penicillin/streptomycin, aphidicolin, glutamate, potassium chloride] containing 2,000 IU/ml DNase and 10 mg/ml ovomucoid protease inhibitor. Single-cell suspensions in complete media were plated on pre-coated poly-L-ornithine/laminin 24-well plates (Becton-Dickinson, Bedford, Mass.) at a density of
5.0×10^5 cells/well. Cells were maintained for two weeks prior to experimentation.
Cultures were treated with Compound A at various concentrations, 60 minutes before OGD. Media was removed and replaced with deoxygenated buffer in an anaerobic chamber (80% nitrogen, 10% hydrogen, 10% carbon dioxide gas mixture). Fresh Compound A, Example 34 or Example 41 was added to the cultures and maintained in the anaerobic chamber for 2 hours. At the end of the incubation, fresh media was exchanged and fresh Compound A was added. Cultures were maintained for an additional 24 hours in a normoxic incubator. Cell death was determined by measuring lactate dehydrogenase release into the media 24 hours later (Roche Biochemicals). In the table below, values are shown for the control, OGD, various concentrations of Compound A, and MK801, a NMDA receptor antagonist, which is a positive control.

cPLA2α = target: T1, cPLA2α (Homo sapiens, UniProt P47712); assay: GLU Micelle Assay; type: biochemical
T1 sequence (P47712 1-749): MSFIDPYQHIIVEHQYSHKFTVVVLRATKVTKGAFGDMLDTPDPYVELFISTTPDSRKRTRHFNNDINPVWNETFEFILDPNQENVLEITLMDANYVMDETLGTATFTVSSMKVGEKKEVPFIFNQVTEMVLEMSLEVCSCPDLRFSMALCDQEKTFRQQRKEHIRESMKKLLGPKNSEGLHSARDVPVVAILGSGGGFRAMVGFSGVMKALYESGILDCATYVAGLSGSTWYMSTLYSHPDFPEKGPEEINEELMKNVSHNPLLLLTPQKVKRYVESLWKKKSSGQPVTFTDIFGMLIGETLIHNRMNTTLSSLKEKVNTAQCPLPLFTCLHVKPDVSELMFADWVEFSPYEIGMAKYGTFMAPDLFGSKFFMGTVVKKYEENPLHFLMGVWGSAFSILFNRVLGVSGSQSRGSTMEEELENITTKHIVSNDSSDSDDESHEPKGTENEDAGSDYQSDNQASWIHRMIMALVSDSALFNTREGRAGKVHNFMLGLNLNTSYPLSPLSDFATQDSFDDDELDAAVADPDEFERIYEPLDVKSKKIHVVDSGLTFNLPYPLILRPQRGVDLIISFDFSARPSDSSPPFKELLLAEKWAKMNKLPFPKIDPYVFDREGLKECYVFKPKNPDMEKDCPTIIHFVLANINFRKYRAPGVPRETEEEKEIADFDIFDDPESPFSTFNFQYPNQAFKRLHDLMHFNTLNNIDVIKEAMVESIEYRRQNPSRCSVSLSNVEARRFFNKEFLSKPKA
Procedure: The assay was carried in a 96-well format using a fluorescent plate reader with a 355 nm excitation filter and a 460 nm emission filter (Lab Systems Fluoroscan II, Helsinki, Finland). The assay buffer contained 940 μM Triton X-100, 50 mM Hepes pH 7.4, 0.3 mM EDTA, 1 mM CaCl2 and 300 mM KCl. DTPC (1,2-O-tetradecyl-sn-glycero-3-phosphocholine, Avanti) at a final concentration of 120 μM was added the day of the experiment and GLU (7-Hydroxycoumarinyl-γ-linolenate, Biomol Research Lab, Inc.) at a final concentration of 90 μM was added immediately prior to each assay.
Compounds (10 μL) dissolved in DMSO were placed in duplicate wells of a black 96-well plate. Wells corresponding to the positive and negative controls contained DMSO without inhibitors. Just prior to the experiment, 200 μL assay buffer containing 90 μM GLU and 120 μM DTPC was added to all wells in the assay plate. Assay buffer (50 μL) was added to the negative, and 50 μL cPLA2α solution ([…] in assay buffer) was added to all other wells to initiate the reaction. The final concentration of enzyme was 1 μg/ml. The content of each well was mixed gently during the addition of the enzyme, and the plate was rapidly transferred to the fluorescent plate reader. The increase in fluorescence was read every 4 min for 84 min. The slope of the resulting line was determined and the inhibition was calculated using the equation below: Percent Inhibition=[1−(slope with inhibitor−slope negative control)/(slope positive control−slope negative control)]×100 Rat Whole Blood Assay

Row | Structure (SMILES) | IC50 (TXB2) [µM] | IC50 (cPLA2α) [µM] | protection of cultured neurons from OGD-induced cell death [1] | percent cell death (lactate dehydrogenase release), Avg. ([1]; 0.1 μM) [%] | percent cell death (lactate dehydrogenase release), Avg. ([1]; 0.3 μM) [%] | percent cell death (lactate dehydrogenase release), Avg. ([1]; 1 μM) [%] | percent cell death (lactate dehydrogenase release), Avg. ([1]; 3 μM) [%]
1 | CC(c1ccccc1C(F)(F)F)S(=O)(=O)NCCc1c(CCS(=O)(=O)c2ccc(CCC(=O)O)cc2)c2cc(Cl)ccc2n1C(c1ccccc1)c1ccccc1 (stereo not shown) [Example 39, 3-(4-{[2-(5-chloro-1-(diphenylmethyl)-2-{2-[({1-[2-(trifluoromethyl)phenyl]ethyl}sulfonyl)amino]ethyl}-1H-indol-3-yl)ethyl]sulfonyl}phenyl)propanoic acid] | 0.02 | 0.068 | – | – | – | – | –
2 | O=C(O)c1ccc(CCCc2c(CCNS(=O)(=O)Cc3ccccc3O)n(C(c3ccccc3)c3ccccc3)c3ccc(Cl)cc23)cc1 [Example 40, 4-{3-[5-chloro-1-(diphenylmethyl)-2-(2-{[(2-hydroxybenzyl)sulfonyl]amino}ethyl)-1H-indol-3-yl]propyl}benzoic acid] | 0.06 | 0.072 | – | – | – | – | –
3 | O=C(O)c1ccc(CCCc2c(CCNS(=O)(=O)Cc3ccccc3-c3cccc4ncccc34)n(C(c3ccccc3)c3ccccc3)c3ccc(Cl)cc23)cc1 [Example 41, 4-{3-[5-chloro-1-(diphenylmethyl)-2-(2-{[(2-quinolin-5-ylbenzyl)sulfonyl]amino}ethyl)-1H-indol-3-yl]propyl}benzoic acid] | – | 0.022 | effective in protecting cultured neurons from OGD-induced cell death | 40 | 33 | 30 | 24

These reach a lower IC50 (cPLA2α). Values come first.

Row | IC50 (TXB2) [µM] | IC50 (cPLA2α) [µM] | Structure (SMILES) | protection of cultured neurons from OGD-induced cell death [1] | percent cell death (lactate dehydrogenase release), Avg. ([1]; 0.1 μM) [%] | percent cell death (lactate dehydrogenase release), Avg. ([1]; 0.3 μM) [%] | percent cell death (lactate dehydrogenase release), Avg. ([1]; 1 μM) [%] | percent cell death (lactate dehydrogenase release), Avg. ([1]; 3 μM) [%]
4 | 0.03 | 0.016 | O=C(O)c1ccc(CCCc2c(CCNS(=O)(=O)Cc3ccccc3-c3cccc4cccnc34)n(C(c3ccccc3)c3ccccc3)c3ccc(Cl)cc23)cc1 [Example 34, 4-{3-[5-chloro-1-(diphenylmethyl)-2-(2-{[(2-quinolin-8-ylbenzyl)sulfonyl]amino}ethyl)-1H-indol-3-yl]propyl}benzoic acid] | effective in protecting cultured neurons from OGD-induced cell death | 35 | 28 | 21 | 18
5 | 0.01 | 0.007 | O=C(O)CCc1ccc(S(=O)(=O)CCc2c(CCNS(=O)(=O)Cc3ccccc3C(F)(F)F)n(C(c3ccccc3)c3ccccc3)c3ccc(Cl)cc23)cc1 [Example 38, 3-{4-[(2-{5-chloro-1-(diphenylmethyl)-2-[2-({[2-(trifluoromethyl)benzyl]sulfonyl}amino)ethyl]-1H-indol-3-yl}ethyl)sulfonyl]phenyl}propanoic acid] | – | – | – | – | –
